Test results: patent US7858618B2, “Compounds” (Boehringer Ingelheim International GmbH, priority 2006, dated 2010)

biological target: T1, hBK1 receptor (Homo sapiens, UniProt P46663); assay: hBK1 receptor binding (displacement of [3H]-kallidin (DesArg10, Leu9) from membranes of CHO cells expressing the hBK1 receptor); details: CHO cell membranes expressing hBK1 receptor; 0.5 to 1.0 nM [3H]-kallidin (DesArg10, Leu9); 60 minutes at room temperature
T1 construct: expressed in transfected cells; host or cells: CHO cells
T1 sequence (P46663 1-353): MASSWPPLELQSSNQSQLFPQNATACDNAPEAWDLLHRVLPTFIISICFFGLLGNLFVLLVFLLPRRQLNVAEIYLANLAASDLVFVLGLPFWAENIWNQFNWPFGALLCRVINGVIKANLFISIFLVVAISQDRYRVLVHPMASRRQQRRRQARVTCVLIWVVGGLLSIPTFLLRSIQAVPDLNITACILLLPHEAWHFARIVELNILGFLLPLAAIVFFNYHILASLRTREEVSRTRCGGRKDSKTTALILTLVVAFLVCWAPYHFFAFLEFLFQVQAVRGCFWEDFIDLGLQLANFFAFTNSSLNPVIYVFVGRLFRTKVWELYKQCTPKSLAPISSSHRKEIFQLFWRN
Method: Description of the Method of hBK1 Receptor Binding
CHO cells expressing the hBK1 receptor are cultivated in Dulbecco's modified medium. The medium from confluent cultures is removed and the cells are washed with PBS buffer, scraped off and isolated by centrifugation. The cells are then homogenized in suspension and the homogenate is centrifuged and resuspended. The protein content is determined and the membrane preparation obtained in this manner is then frozen at −80° C.
After thawing, 200 μl of the homogenate (50 to 100 μg of proteins/assay) are incubated at room temperature with 0.5 to 1.0 nM of kallidin (DesArg10, Leu9), [3,4-prolyl-3,43H(N)] and increasing concentrations of the test substance in a total volume of 250 μl for 60 minutes. The incubation is terminated by rapid filtration through GF/B glass fibre filters which had been pretreated with polyethyleneimine (0.3%). The protein-bound radioactivity is measured in a TopCount NXT. Non-specific binding is defined as radioactivity bound in the presence of 1.0 μM of kallidin (DesArg10, Leu9), [3,4-prolyl-3,43H(N)]. The concentration/binding curve is analysed using a computer-assisted nonlinear curve fitting. The Ki which corresponds to the test substance is determined using the data obtained in this manner. […]

SMILES	Ki [nM]
COc1cc(C)c(S(=O)(=O)N(C)CCOCC(=O)N(C)CC2CCC(N3CCN(C)CC3)CC2)c(C)c1 (stereo not shown) [(420)]	9.1
COc1cc(C)c(S(=O)(=O)N(C)CCOCC(=O)N(C)[C@@H]2CCC[C@H](N3CCN(C)CC3)C2)c(C)c1 [(421)]	8.7
COc1cc(C)c(S(=O)(=O)N(C)CCOCC(=O)N(C)C[C@]2(C)CC[C@H](CN3CCCC3)C2(C)C)c(C)c1 [(423)]	3.4
COc1cc(C)c(S(=O)(=O)N(C)CCOCC(=O)N(C)C2CCc3cc(CN4CCCC4)ccc32)c(C)c1 (stereo not shown) [(424)]	1.4
COc1cc(C)c(S(=O)(=O)N(C)CCOCC(=O)N(C)C[C@@H]2CC[C@H](CN3CCCC3)C2)c(C)c1 [(425)]	8.3
COc1cc(C)c(S(=O)(=O)N(C)CCOCC(=O)N(C)C[C@H]2CC[C@@H](N(C)CCN(C)C)CC2)c(C)c1 [(428)]	6.3
COc1cc(C)c(S(=O)(=O)N(C)CCOCC(=O)N(C)[C@H]2CC[C@@H](CCN3CCCC3)CC2)c(C)c1 [(435)]	1.5
COc1cc(C)c(S(=O)(=O)N(C)CCOCC(=O)N(C)[C@H]2CC[C@H](CCN3CCCC3)CC2)c(C)c1 [(439)]	7.5
COc1cc(C)c(S(=O)(=O)N(C)CCOCC(=O)N(C)[C@H]2CC[C@@H](CN3CC[C@@H](N(C)C)C3)CC2)c(C)c1 [(441)]	4.6
COc1cc(C)c(S(=O)(=O)N(C)CCOCC(=O)N(C)[C@H]2CC[C@@H](CN3CCC(N(C)C)C3)CC2)c(C)c1 (stereo partly shown) [(444)]	6.9
COc1cc(C)c(S(=O)(=O)N(C)CCOCC(=O)N(C)Cc2ccc(N3CCC(N4CCCC4)C3)cc2Cl)c(C)c1 (stereo not shown) [(445)]	5.6
COc1cc(C)c(S(=O)(=O)N(C)CCOCC(=O)N(C)[C@@H]2CCN([C@H]3CC[C@@H](N4CCCC4)CC3)C2)c(C)c1 [(448)]	0.82
COc1cc(C)c(S(=O)(=O)N(C)CCOCC(=O)N(C)C2CCCN(C3CCN(C)CC3)CC2)c(C)c1 (stereo not shown) [(451)]	9
COc1cc(C)c(S(=O)(=O)N(C)CCOCC(=O)N(C)[C@@H]2CCN(C3CCN(CC4CC4)CC3)C2)c(C)c1 [(458)]	4.3
COc1cc(C)c(S(=O)(=O)N(C)CCOCC(=O)N(C)[C@H]2CC[C@@H](CCN(C)CC3CC3)CC2)c(C)c1 [(463)]	2
COc1cc(C)c(S(=O)(=O)N(C)CCOCC(=O)N(C)[C@H]2CC[C@@H](CCN3CCN(C)CC3)CC2)c(C)c1 [(464)]	1.5
COc1cc(C)c(S(=O)(=O)N(C)CCOCC(=O)N(C)[C@H]2CCN(C3CCN(CC4CC4)CC3)C2)c(C)c1 [(465)]	3.8
COc1cc(C)c(S(=O)(=O)N(C)CCOCC(=O)N(C)C2CCC(N3CCC(N4CCCC4)CC3)CC2)c(C)c1 (stereo not shown) [(468)]	1
COc1cc(Cl)cc(Cl)c1S(=O)(=O)N(C)CCOCC(=O)N(C)[C@@H]1CCN(C2CCN(C)CC2)C1 [(469)]	8
COc1cc(C)c(S(=O)(=O)N(C)CCOCC(=O)N(C)[C@H]2CC[C@@H](CN3CC[C@H](N4CCCC4)C3)CC2)c(C)c1 [(471)]	4.1
COc1cc(C)c(S(=O)(=O)N(C)CCOCC(=O)N(C)[C@H]2CC[C@@H](CN3CC[C@@H](N4CCCC4)C3)CC2)c(C)c1 [(472)]	0.68
COc1cc(C)c(S(=O)(=O)N(C)CCOCC(=O)N(C)[C@H]2CC[C@@H](CN3CCC[C@H](N(C)C)C3)CC2)c(C)c1 [(473)]	1.8
COc1cc(C)c(S(=O)(=O)N(C)CCOCC(=O)N(C)C[C@H]2CC[C@@](C)(CN3CCCC3)C2(C)C)c(C)c1 [(474)]	1.4
COc1cc(C)c(S(=O)(=O)N(C)CCOCC(=O)N(C)CC2CCN(C(=O)CCN3CCCC3)CC2)c(C)c1 [(475)]	2.4

SMILES	Ki [nM]
COc1cc(C)c(S(=O)(=O)N(C)CCOCC(=O)N(C)[C@H]2CC[C@@H](CN3CCC[C@@H](N(C)C)C3)CC2)c(C)c1 [(476)]	2.35
COc1cc(C)c(S(=O)(=O)N(C)CCOCC(=O)N(C)C2CCC(C3CCN(C)CC3)CC2)c(C)c1 (stereo not shown) [(477)]	5.8
COc1cc(C)c(S(=O)(=O)N(C)CCOCC(=O)N(C)[C@@H]2CCN(C3CCN(C4CCCC4)CC3)C2)c(C)c1 [(478)]	1
COc1cc(C)c(S(=O)(=O)N(C)CC(=O)NCC(=O)N(C)Cc2ccc(NCCN(C)C)cc2)c(C)c1 [(492)]	3.2
COc1cc(C)c(S(=O)(=O)N(C)CCOCC(=O)N(C)C[C@@H]2CCN(CCCN3CCCC3)C2)c(C)c1 [(576)]	0.85
COc1cc(C)c(S(=O)(=O)N(C)CCOCC(=O)N(C)[C@@H]2CCN(C3CCN(C4CCC4)CC3)C2)c(C)c1 [(577)]	0.34
COc1cc(C)c(S(=O)(=O)N(C)CCOCC(=O)N(C)[C@@H]2CCN(C(=O)CCN3CCCC3)C2)c(C)c1 [(580)]	6.2
COc1cc(C)c(S(=O)(=O)N(C)CCOCC(=O)N(C)C[C@]2(C)CC[C@H](CN3CCC3)C2(C)C)c(C)c1 [(582)]	9.3
COc1cc(C)c(S(=O)(=O)N(C)CCOCC(=O)N(C)C[C@H]2CC[C@@H](N3CCN(C)CC3)CC2)c(C)c1 [(584)]	9
COc1cc(C)c(S(=O)(=O)N(C)CCOCC(=O)N(C)CC2CCC(N3CCC(N(C)C)CC3)CC2)c(C)c1 (stereo not shown) [(586)]	5.1
COc1cc(C)c(S(=O)(=O)N(C)CCOCC(=O)N(C)CC2CCC(N3CCCC(N(C)C)C3)CC2)c(C)c1 (stereo not shown) [(587)]	9.5
COc1cc(C)c(S(=O)(=O)N(C)CCOCC(=O)N(C)C2CCC(N3CCC(C4CCN(C)CC4)CC3)CC2)c(C)c1 (stereo not shown) [(588)]	1.5
COc1cc(C)c(S(=O)(=O)N(C)CCOCC(=O)N(C)[C@H]2CC[C@@H](N3CCN(C)CC3)CC2)c(C)c1 [(589)]	5.1
COc1cc(C)c(S(=O)(=O)N(C)CCOCC(=O)N(C)C[C@H]2CC[C@H](NCCN3CCCC3)CC2)c(C)c1 [(591)]	1.9
COc1cc(C)c(S(=O)(=O)N(C)CCOCC(=O)N(C)[C@H]2CC[C@@H](CCN3CCC3)CC2)c(C)c1 [(592)]	2.8
COc1cc(C)c(S(=O)(=O)N(C)CCOCC(=O)N(C)[C@H]2CC[C@@H](OCCN(C)C)CC2)c(C)c1 [(613)]	9.7
COc1cc(C)c(S(=O)(=O)N(C)CCOCC(=O)N(C)[C@H]2CC[C@@H](OCCN3CCCC3)CC2)c(C)c1 [(614)]	2
COc1cc(C)c(S(=O)(=O)N(C)CCOCC(=O)N(C)C(C)[C@H]2CC[C@H](CN3CCCC3)CC2)c(C)c1 (stereo partly shown) [(616)]	3.7
COc1cc(C)c(S(=O)(=O)N(C)CCOCC(=O)N(C)[C@H]2CC[C@@H](CCN3CCOCC3)CC2)c(C)c1 [(619)]	1.2
COc1cc(C)c(S(=O)(=O)N(C)CCOCC(=O)N(C)[C@H]2CC[C@@H](CCN(C)C)CC2)c(C)c1 [(620)]	5.9
COc1cc(C)c(S(=O)(=O)N(C)CCOCC(=O)N(C)C[C@H]2CC[C@@](C)(CN3CCC3)C2(C)C)c(C)c1 [(621)]	5.8
COc1cc(C)c(S(=O)(=O)N(C)CCOCC(=O)N(C)[C@@H]2CCN(C(=O)CCN3CCCCC3)C2)c(C)c1 [(623)]	3.4
CCN(CC)CCC(=O)N1CC[C@@H](N(C)C(=O)COCCN(C)S(=O)(=O)c2c(C)cc(OC)cc2C)C1 [(624)]	8
COc1cc(C)c(S(=O)(=O)N(C)CCOCC(=O)N(C)C2CCN(C(=O)CCN3CCCC3)CC2)c(C)c1 [(630)]	5.5

system: not given; assay: not given; details: not given

SMILES	melting point [°C]
CCN(CC)CC1CCN(c2ccc(NC(=O)CCN(C)S(=O)(=O)c3c(C)cc(OC)cc3C)nn2)CC1 [Example 87]	173
